Measured values from patent US9409908B2 (priority 2012, dated 2016).
Structures can show the parent of a compound that is named as a salt.

Legend:
[1] = target: purified human Factor XIa (Homo sapiens (Human), UniProt P03951); experiment: biochemical; assay type: biochemical; details: read-out: Factor XIa Ki
[2] = target: purified human plasma kallikrein (Homo sapiens (Human), UniProt P03952); experiment: biochemical; assay type: biochemical; details: read-out: Plasma Kallikrein Ki
Sequence of purified human plasma kallikrein (P03952 whole entry, looked up): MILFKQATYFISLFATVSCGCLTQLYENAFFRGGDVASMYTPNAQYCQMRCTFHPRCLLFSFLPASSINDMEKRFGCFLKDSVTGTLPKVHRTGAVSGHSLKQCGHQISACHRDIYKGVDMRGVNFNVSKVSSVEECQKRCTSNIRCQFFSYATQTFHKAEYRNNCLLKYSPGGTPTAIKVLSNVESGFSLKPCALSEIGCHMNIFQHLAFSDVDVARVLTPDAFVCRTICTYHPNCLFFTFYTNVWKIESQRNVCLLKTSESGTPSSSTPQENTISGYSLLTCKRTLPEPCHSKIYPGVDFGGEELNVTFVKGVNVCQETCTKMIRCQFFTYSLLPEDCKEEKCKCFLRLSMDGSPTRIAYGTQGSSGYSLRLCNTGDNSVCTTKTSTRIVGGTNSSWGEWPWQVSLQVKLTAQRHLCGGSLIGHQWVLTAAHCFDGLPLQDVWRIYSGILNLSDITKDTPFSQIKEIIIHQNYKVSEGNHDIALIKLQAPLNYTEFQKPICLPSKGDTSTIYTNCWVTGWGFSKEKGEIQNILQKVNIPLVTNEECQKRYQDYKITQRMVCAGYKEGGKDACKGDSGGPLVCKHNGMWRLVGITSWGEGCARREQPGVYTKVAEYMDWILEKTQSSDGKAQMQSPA
Sequence of purified human plasma kallikrein (P03952 whole entry partner, looked up): as the sequence (P03952 whole entry, looked up) above

Sequence of purified human Factor XIa (P03951 whole entry, looked up): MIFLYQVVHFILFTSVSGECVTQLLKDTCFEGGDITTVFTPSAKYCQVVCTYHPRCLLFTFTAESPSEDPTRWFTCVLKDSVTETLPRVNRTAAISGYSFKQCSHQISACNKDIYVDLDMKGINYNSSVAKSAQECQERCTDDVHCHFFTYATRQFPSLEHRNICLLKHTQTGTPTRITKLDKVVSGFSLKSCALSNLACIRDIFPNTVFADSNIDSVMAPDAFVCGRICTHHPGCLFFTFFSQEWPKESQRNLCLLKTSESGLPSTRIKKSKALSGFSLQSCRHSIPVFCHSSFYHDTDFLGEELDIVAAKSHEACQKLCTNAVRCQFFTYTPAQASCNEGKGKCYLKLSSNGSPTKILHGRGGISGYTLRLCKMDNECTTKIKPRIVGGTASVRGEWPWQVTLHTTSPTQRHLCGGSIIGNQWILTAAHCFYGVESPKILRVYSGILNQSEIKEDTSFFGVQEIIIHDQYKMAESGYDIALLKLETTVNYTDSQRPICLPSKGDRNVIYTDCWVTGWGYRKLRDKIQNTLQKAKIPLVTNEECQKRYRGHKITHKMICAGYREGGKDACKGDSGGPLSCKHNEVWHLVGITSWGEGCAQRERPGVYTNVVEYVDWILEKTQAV
Sequence of purified human Factor XIa (P03951 whole entry partner, looked up): as the sequence (P03951 whole entry, looked up) above

SMILES | Ki [1] [nM] | Ki [2] [nM]
COC(=O)Nc1ccc2c(c1)NC(=O)[C@H](C)CCC[C@H](N1CCC(C3CCCCN3C)=CC1=O)c1cc-2ccn1 (stereo partly drawn) [Example 158, Methyl N-[(10R,14S)-10-methyl-14-[4-(1-methylpiperidin-2-yl)-6-oxo-1,2,3,6-tetrahydropyridin-1-yl]-9-oxo-8,16-diazatricyclo[13.3.1.0^2,7]nonadeca-1(19),2,4,6,15,17-hexaen-5-yl]carbamate, 2 TFA salt] | > 404 | 10900
COC(=O)Nc1ccc2c(c1)NC(=O)[C@H](C)CCC[C@H](n1ncc(-c3c(Br)ccc(Cl)c3F)cc1=O)c1cc-2ccn1 [Example 78, Methyl N-[(10R,14S)-14-[4-(6-bromo-3-chloro-2-fluorophenyl)-6-oxo-1,6-dihydropyridazin-1-yl]-10-methyl-9-oxo-8,16-diazatricyclo[13.3.1.0^2,7]nonadeca-1(19),2(7),3,5,15,17-hexaen-5-yl]carbamate, TFA salt] | 0.98 | 5
COC(=O)Nc1ccc2c(c1)NC(=O)[C@H](C)CCC[C@H](N1CCC(c3c(C#N)ccc4c(N)noc34)=CC1=O)c1cc-2cc(OC)n1 [Example 9, Methyl N-[(10R,14S)-14-[4-(3-amino-6-cyano-1,2-benzoxazol-7-yl)-6-oxo-1,2,3,6-tetrahydropyridin-1-yl]-17-methoxy-10-methyl-9-oxo-8,16-diazatricyclo[13.3.1.0^2,7]nonadeca-1(18),2,4,6,15(19),16-hexaen-5-yl]carbamate, TFA salt] | 33.2 | 46
Cc1nn(C)cc1-c1ccc(Cl)c(F)c1C1=CC(=O)N([C@H]2CCC[C@@H](C)C(=O)Nc3ccccc3-c3ccnc2c3)CC1 [Example 60, (10R,14S)-14-{4-[3-Chloro-6-(1,3-dimethyl-1H-pyrazol-4-yl)-2-fluorophenyl]-6-oxo-1,2,3,6-tetrahydropyridin-1-yl}-10-methyl-8,16-diazatricyclo[13.3.1.0^2,7]nonadeca-1(19),2,4,6,15,17-hexaen-9-one, TFA salt] | > 409 | 1090
C[C@@H]1CCC[C@H](N2CCC(c3c(F)ccc(Cl)c3F)=CC2=O)c2cc(ccn2)-c2cc(CO)ccc2NC1=O [Example 148, (10R,14S)-14-[4-(3-chloro-2,6-difluorophenyl)-6-oxo-1,2,3,6-tetrahydropyridin-1-yl]-4-(hydroxymethyl)-10-methyl-8,16-diazatricyclo[13.3.1.0^2,7]nonadeca-1(19),2(7),3,5,15,17-hexaen-9-one] | 90.1 | 118
COC(=O)Nc1ccc2c(c1)NC(=O)CCCCC[C@H](N1CCC(c3c(F)ccc(Cl)c3F)=CC1=O)c1cc-2ccn1 [Example 219, Methyl N-[(15S)-15-[4-(3-chloro-2,6-difluorophenyl)-6-oxo-1,2,3,6-tetrahydropyridin-1-yl]-9-oxo-8,17-diazatricyclo[14.3.1.0^2,7]icosa-1(20),2(7),3,5,16,18-hexaen-5-yl]carbamate, TFA salt] | 6.61 | 6.85
C[C@@H]1CCC[C@H](N2CCC(c3c(F)ccc(Cl)c3F)=CC2=O)c2cc(ccn2)-c2cc3c(cc2NC1=O)NC(=O)CC3 [Example 86, (14R,18S)-18-[4-(3-Chloro-2,6-difluorophenyl)-6-oxo-1,2,3,6-tetrahydropyridin-1-yl]-14-methyl-8,12,20-triazatetracyclo[17.3.1.0^2,11.0^4,9]tricosa-1(23),2(11),3,9,19,21-hexaene-7,13-dione, TFA salt] | 0.72 | 1
C[C@@H]1CCC[C@H](N2CCC(c3c(F)ccc(Cl)c3F)=CC2=O)c2cc(ccn2)-c2cc(F)c(N)cc2NC1=O [Example 143, (10R,14S)-5-amino-14-[4-(3-chloro-2,6-difluorophenyl)-6-oxo-1,2,3,6-tetrahydropyridin-1-yl]-4-fluoro-10-methyl-8,16-diazatricyclo[13.3.1.0^2,7]nonadeca-1(19),2(7),3,5,15,17-hexaen-9-one] | 1.31 | 3.38
COC(=O)Nc1ccc2c(c1)NC(=O)[C@H](C)CCC[C@H](N1CCC(c3cc(Cl)ccc3C)=CC1=O)c1cc-2ccn1 [Example 110, Methyl N-[(10R,14S)-14-[4-(5-chloro-2-methylphenyl)-6-oxo-1,2,3,6-tetrahydropyridin-1-yl]-10-methyl-9-oxo-8,16-diazatricyclo[13.3.1.0^2,7]nonadeca-1(18),2,4,6,15(19),16-hexaen-5-yl]carbamate] | 0.62 | 3.91
C[C@@H]1CCC[C@H](N2CCC(c3c(-n4cnnn4)ccc(Cl)c3F)=CC2=O)c2cc(ccn2)-c2cc(F)ccc2NC1=O [Example 184, (10R,14S)-14-{4-[3-chloro-2-fluoro-6-(1H-1,2,3,4-tetrazol-1-yl)phenyl]-6-oxo-1,2,3,6-tetrahydropyridin-1-yl}-4-fluoro-10-methyl-8,16-diazatricyclo[13.3.1.0^2,7]nonadeca-1(19),2(7),3,5,15,17-hexaen-9-one] | < 0.05 | 2.51
C[C@@H]1CCC[C@H](N2CCC(c3c(Br)ccc(Cl)c3F)=CC2=O)c2cc(ccn2)-c2ccccc2NC1=O [Example 45, (10R,14S)-14-[4-(6-Bromo-3-chloro-2-fluorophenyl)-6-oxo-1,2,3,6-tetrahydropyridin-1-yl]-10-methyl-8,16-diazatricyclo[13.3.1.0^2,7]nonadeca-1(19),2,4,6,15,17-hexaen-9-one, TFA salt] | 2.08 | 7
C[C@@H]1CCC[C@H](N2CCC(c3c(C#N)ccc(C#N)c3F)=CC2=O)c2cc(ccn2)-c2cc(F)c(F)cc2NC1=O [Example 210, 2-{1-[(10R,14S)-4,5-difluoro-10-methyl-9-oxo-8,16-diazatricyclo[13.3.1.0^2,7]nonadeca-1(19),2(7),3,5,15,17-hexaen-14-yl]-6-oxo-1,2,3,6-tetrahydropyridin-4-yl}-3-fluorobenzene-1,4-dicarbonitrile, TFA salt] | 477 | 1200
COC(=O)Nc1cc2c(cc1I)-c1ccnc(c1)[C@@H](N1CCC(c3c(F)ccc(Cl)c3F)=CC1=O)CCC[C@@H](C)C(=O)N2 [Example 62, Methyl N-[(10R,14S)-14-[4-(3-chloro-2,6-difluorophenyl)-6-oxo-1,2,3,6-tetrahydropyridin-1-yl]-4-iodo-10-methyl-9-oxo-8,16-diazatricyclo[13.3.1.0^2,7]nonadeca-1(19),2,4,6,15,17-hexaen-5-yl]carbamate, TFA salt] | 196 | 1100
C[C@@H]1CCC[C@H](N2CCC(c3c(C4CC4)ccc(Cl)c3F)=CC2=O)c2cc(ccn2)-c2ccccc2NC1=O [Example 52, (10R,14S)-14-[4-(3-Chloro-6-cyclopropyl-2-fluorophenyl)-6-oxo-1,2,3,6-tetrahydropyridin-1-yl]-10-methyl-8,16-diazatricyclo[13.3.1.0^2,7]nonadeca-1(19),2,4,6,15,17-hexaen-9-one, TFA salt] | 45.6 | 193
C[C@@H]1CCC[C@H](N2CCC(c3c(F)ccc(Cl)c3F)=CC2=O)c2cc(ccn2)-c2cn[nH]c2NC1=O [Example 221, 13-[4-(3-chloro-2,6-difluorophenyl)-6-oxo-1,2,3,6-tetrahydropyridin-1-yl]-9-methyl-4,5,7,15-tetraazatricyclo[12.3.1.0^2,6]octadeca-1(18),2(6),3,14,16-pentaen-8-one, 2TFA salt] | > 417 | 1320
C[C@@H]1CCC[C@H](N2CCC(c3c(F)ccc(Cl)c3F)=CC2=O)c2cc(ccn2)-c2c(F)cccc2NC1=O [Example 80, (10R,14S)-14-[4-(3-Chloro-2,6-difluorophenyl)-6-oxo-1,2,3,6-tetrahydropyridin-1-yl]-3-fluoro-10-methyl-8,16-diazatricyclo[13.3.1.0^2,7]nonadeca-1(19),2(7),3,5,15,17-hexaen-9-one, TFA salt] | 13.6 | 38
C[C@@H]1CCC[C@H](N2CCC(c3c(-c4ccncc4)ccc(Cl)c3F)=CC2=O)c2cc(ccn2)-c2ccccc2NC1=O [Example 56, (10R,14S)-14-{4-[3-Chloro-2-fluoro-6-(pyridin-4-yl)phenyl]-6-oxo-1,2,3,6-tetrahydropyridin-1-yl}-10-methyl-8,16-diazatricyclo[13.3.1.0^2,7]nonadeca-1(19),2,4,6,15,17-hexaen-9-one, TFA salt] | 16.5 | 137
C[C@@H]1CCC[C@H](N2CCC(c3c(F)ccc(Cl)c3F)=CC2=O)c2cc(ccn2)-c2cc3c(O)cc(=O)[nH]c3cc2NC1=O [Example 199, (14R,18S)-18-[4-(3-chloro-2,6-difluorophenyl)-6-oxo-1,2,3,6-tetrahydropyridin-1-yl]-5-hydroxy-14-methyl-8,12,20-triazatetracyclo[17.3.1.0^2,11.0^4,9]tricosa-1(23),2,4(9),5,10,19,21-heptaene-7,13-dione, TFA salt] | < 0.05 | 1.79
CC(C)[C@@H]1CCC[C@H](N2CCC(c3c(F)ccc(Cl)c3F)=CC2=O)c2cc(ccn2)-c2ccccc2NC1=O [Example 95, (10S,14S)-14-[4-(3-chloro-2,6-difluorophenyl)-6-oxo-1,2,3,6-tetrahydropyridin-1-yl]-10-(propan-2-yl)-8,16-diazatricyclo[13.3.1.0^2,7]nonadeca-1(18),2,4,6,15(19),16-hexaen-9-one, TFA salt] | 46.5 | 107
C[C@@H]1CCC[C@H](N2CCC(c3c(F)ccc(Cl)c3F)=CC2=O)c2cc(ccn2)-c2cc(F)c(F)cc2NC1=O [Example 205, (10R,14S)-14-[4-(3-chloro-2,6-difluorophenyl)-6-oxo-1,2,3,6-tetrahydropyridin-1-yl]-4,5-difluoro-10-methyl-8,16-diazatricyclo[13.3.1.0^2,7]nonadeca-1(19),2(7),3,5,15,17-hexaen-9-one, TFA salt] | 69.2 | 88.4
COC(=O)Nc1ccc2c(c1)NC(=O)[C@H](C)CCC[C@H](N1CCC(c3c(C#N)ccc(Cl)c3F)=CC1=O)c1cc-2ccn1 [Example 3, Methyl N-[(10R,14S)-14-[4-(3-chloro-6-cyano-2-fluorophenyl)-6-oxo-1,2,3,6-tetrahydropyridin-1-yl]-10-methyl-9-oxo-8,16-diazatricyclo[13.3.1.0^2,7]nonadeca-1(19),2,4,6,15,17-hexaen-5-yl]carbamate, TFA salt] | 0.03 | 1
